From US20260248927A1, “TARGETED PROTEIN DEGRADATION USING BIFUNCTIONAL COMPOUNDS THAT BIND UBIQUITIN LIGASE AND TARGET MCL-1 PROTEIN” (Captor Therapeutics S.A., priority 2022, published 2026)

Assays:
[1] = biological target: [MCL-1]-[compound of formula (I)]—[CRBN/DDB1] (Homo sapiens, UniProt Q07820+Q96SW2); test: HTRF ternary complex formation assay; assay type: binding; settings: hMcl-1 and CRBN, 180 min at 25° C.; read-out: HTRF ternary complex Average pEC50 by molecule (converted)
Protocol: The effect of the bifunctional compounds of the invention on the formation of a ternary complex composed of [MCL-1]-[compound of formula (I)]—[CRBN/DDB1] was investigated with HTRF ternary complex assay.
Mix of protein solution was prepared: • 48 nM hMcl-1 and 105.6 nM CRBN were prepared in PPI Europium detection buffer with 2 mM DTT. • Acceptor and donor stock solutions were diluted 100 times in PPI Europium detection buffer. Equal volumes of both reagents were mixed. Finally giving 3 nM of Streptavidin-Eu cryptate ([…]) and 6.67 nM of Anti-6×his-d2 ([…]).
5 μl of protein mix was dispensed to all wells. The tested compounds in dose-response were dispensed onto a white 384-well low volume plate (Greiner, 784075). DMSO was backfilled to all wells, resulting in a final DMSO content of 0.5%. Wells containing only DMSO served as a background. Next, 5 μl of solution with donor and acceptor was added to the wells.
The plate was sealed with transparent film and shaken using a VibroTurbulator for 60 sec at level 3. The plate was then spun down shortly (10 s, 1000 rcf) and incubated at 25° C. for 180 min.
The read-out was performed with plate reader (Pherastar, BMG Labtech) in time resolved fluorescence mode. Filterset: TR 337 665 620.
The results were analyzed as follows: • 1) an average of fluorescence for background signal was calculated and used as a negative control; • 2) raw fluorescence values for tested compounds were normalized against negative controls; • 3) bell shape curve was fitted to a gaussian distribution using a non-linear least squares Gauss-Newton algorithm; • 4) EC50 and pEC50 values were determined.

MV4-11 cells = test: Cell viability assay (CellTiter-Glo), MV4-11; assay type: cell-based; settings: Homo sapiens, MV4-11, 24 hours, 1% FBS, read-out: Average pCC50 by molecule MV4-11 (converted)
Source text: (§1) The effect of various compounds of the invention on the viability of MV4-11 and ARH-77 cell lines was investigated, using the CTG protocol described below.
(§2) MV4-11 cell lines are derived from acute myeloid leukaemia and it is described in the literature as a MCL-1 dependent cell line, as opposed to lymphoblast-like ARH-77 cell line, which is described as independent of MCL-1 (Tron A E et al. Nat Commun. 2018; 9: 5341; Caenepeel S et al. Cancer Discov. 2018 December; 8(12): 1582-1597).
(§3) Cells (MV4-11 or ARH-77) were seeded on […] in a growth medium with 1% FBS. Next, compound stocks were pre-diluted in DMSO and added directly to the cell culture media (final DMSO concentration: 0.5%). Compound concentrations used in this assay: 1/3 dilutions starting at 30 μM (9 to 12 points). After 24 hours of incubation, cell viability was evaluated using CellTiter-Glo Luminescent Cell Viability Assay (Promega, cat #G7572). The luminescence signal was measured using a CLARIOstar Plus Multi-Mode Microplate Reader (574-590 nm).
(§4) Results were normalized to DMSO control. Collected data were analyzed using GraphPad Prism to calculate pCC50 values.

[2] = Cell viability assay (CellTiter-Glo), ARH-77; assay type: cell-based; settings: human, ARH-77 cells (lymphoblast-like, MCL-1 independent), ARH-77, 24 hours, 1% FBS, read-out: Average pCC50 by molecule ARH-77 (converted)
Source text: as §1, §2, §3, §4

Chain of [MCL-1]-[compound of formula (I)]—[CRBN/DDB1] (Q07820 whole entry): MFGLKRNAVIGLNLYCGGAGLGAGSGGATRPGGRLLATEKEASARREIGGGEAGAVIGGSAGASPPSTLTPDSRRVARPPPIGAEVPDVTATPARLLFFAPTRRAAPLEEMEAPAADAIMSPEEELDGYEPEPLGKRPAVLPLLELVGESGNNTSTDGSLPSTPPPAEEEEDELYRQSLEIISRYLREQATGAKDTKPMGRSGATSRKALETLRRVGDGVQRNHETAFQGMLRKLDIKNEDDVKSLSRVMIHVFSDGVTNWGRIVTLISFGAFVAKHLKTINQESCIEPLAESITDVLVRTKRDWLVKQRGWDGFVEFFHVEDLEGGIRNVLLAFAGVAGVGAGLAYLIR
Chain of [MCL-1]-[compound of formula (I)]—[CRBN/DDB1] (Q96SW2 whole entry): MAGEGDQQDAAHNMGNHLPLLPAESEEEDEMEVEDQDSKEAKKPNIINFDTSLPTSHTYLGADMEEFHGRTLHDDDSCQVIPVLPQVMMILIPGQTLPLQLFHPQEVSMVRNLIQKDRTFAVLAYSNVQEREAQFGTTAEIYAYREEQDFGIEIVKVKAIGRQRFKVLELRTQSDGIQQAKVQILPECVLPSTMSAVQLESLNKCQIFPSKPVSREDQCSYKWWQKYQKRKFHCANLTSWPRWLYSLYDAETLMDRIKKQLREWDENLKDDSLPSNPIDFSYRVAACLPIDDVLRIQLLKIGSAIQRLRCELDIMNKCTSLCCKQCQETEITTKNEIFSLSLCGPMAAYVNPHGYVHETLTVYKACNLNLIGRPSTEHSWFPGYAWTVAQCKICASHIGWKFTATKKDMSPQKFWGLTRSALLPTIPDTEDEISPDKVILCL
Chain of [MCL-1]-[compound of formula (I)]—[CRBN/DDB1] (Q16531 whole entry partner): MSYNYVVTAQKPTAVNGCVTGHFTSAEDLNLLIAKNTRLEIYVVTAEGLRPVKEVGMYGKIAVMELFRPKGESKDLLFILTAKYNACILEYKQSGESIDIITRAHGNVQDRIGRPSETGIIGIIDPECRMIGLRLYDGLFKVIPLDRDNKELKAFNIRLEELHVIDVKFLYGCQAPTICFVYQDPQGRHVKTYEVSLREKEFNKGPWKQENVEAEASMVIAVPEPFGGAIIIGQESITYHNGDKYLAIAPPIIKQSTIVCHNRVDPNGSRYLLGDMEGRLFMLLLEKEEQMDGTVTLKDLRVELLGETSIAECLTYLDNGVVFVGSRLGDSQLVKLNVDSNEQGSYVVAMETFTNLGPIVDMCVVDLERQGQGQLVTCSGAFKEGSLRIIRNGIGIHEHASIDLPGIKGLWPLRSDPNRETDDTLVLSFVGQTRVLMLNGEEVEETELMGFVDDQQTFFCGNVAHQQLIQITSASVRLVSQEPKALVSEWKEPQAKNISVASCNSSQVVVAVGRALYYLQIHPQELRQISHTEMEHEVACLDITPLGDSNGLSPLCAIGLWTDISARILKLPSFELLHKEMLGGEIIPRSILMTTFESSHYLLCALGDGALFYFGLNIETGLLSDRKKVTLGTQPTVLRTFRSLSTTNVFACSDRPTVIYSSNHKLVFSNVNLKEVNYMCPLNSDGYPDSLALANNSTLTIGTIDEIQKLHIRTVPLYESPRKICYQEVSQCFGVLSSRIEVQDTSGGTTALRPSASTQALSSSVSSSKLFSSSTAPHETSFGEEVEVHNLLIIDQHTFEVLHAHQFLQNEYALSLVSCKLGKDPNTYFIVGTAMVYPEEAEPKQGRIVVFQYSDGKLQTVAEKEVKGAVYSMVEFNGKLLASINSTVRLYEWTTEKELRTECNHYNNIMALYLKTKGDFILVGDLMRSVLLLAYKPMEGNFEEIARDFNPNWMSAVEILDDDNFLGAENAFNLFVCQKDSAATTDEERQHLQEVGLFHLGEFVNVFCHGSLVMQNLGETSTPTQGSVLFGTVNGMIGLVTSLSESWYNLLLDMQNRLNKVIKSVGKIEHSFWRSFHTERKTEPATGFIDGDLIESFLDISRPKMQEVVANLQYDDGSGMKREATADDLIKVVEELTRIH

| EC50 [1] [nM] | SMILES | CC50 (MV4-11 cells) [nM] | CC50 at 24 h [2] [nM] |
| --- | --- | --- | --- |
| < 31.6 | Cc1nn(C)c(C)c1-c1c(Cl)ccc2c(CCCOc3cccc4cc(F)ccc34)c(C(=O)O)n(CCN3CCC(CN4CCN(c5cc6c(cc5F)C(=O)N(C5CCC(=O)NC5=O)C6)CC4)CC3)c12 (stereo not drawn) [Compound 144, 6-Chloro-1-(2-(4-((4-(2-(2,6-dioxopiperidin-3-yl)-6-fluoro-1-oxoisoindolin-5-yl)piperazin-1-yl)methyl)piperidin-1-yl)ethyl)-3-(3-((6-fluoronaphthalen-1-yl)oxy)propyl)-7-(1,3,5-trimethyl-1H-pyrazol-4-yl)-1H-indole-2-carboxylic acid] | < 100 | > 3160 |
| < 100 | Cc1nc2c(C(=O)NC3CCC(=O)NC3=O)cc(OCC(=O)N3CCN(CCn4c(C(=O)O)c(CCCOc5cccc6cc(F)ccc56)c5ccc(Cl)c(-c6c(C)nn(C)c6C)c54)CC3)cc2[nH]1 (stereo not drawn) [Compound 2, 6-Chloro-1-(2-(4-(2-((4-((2,6-dioxopiperidin-3-yl)carbamoyl)-2-methyl-1H-benzo[d]imidazol-6-yl)oxy)acetyl)piperazin-1-yl)ethyl)-3-(3-((6-fluoronaphthalen-1-yl)oxy)propyl)-7-(1,3,5-trimethyl-1H-pyrazol-4-yl)-1H-indole-2-carboxylic acid] | < 100 | > 10000 |
| < 316 | CCc1nn2c(c1-c1c(Cl)ccc3c(CCCOc4cccc5cc(F)ccc45)c(C(=O)O)n(CCN4CCN(C(=O)COc5cccc6c5CN(C5CCC(=O)NC5=O)C6=O)CC4)c13)COCC2 (stereo not drawn) [Compound 36, 6-Chloro-1-(2-(4-(2-((2-(2,6-dioxopiperidin-3-yl)-1-oxoisoindolin-4-yl)oxy)acetyl)piperazin-1-yl)ethyl)-7-(2-ethyl-6,7-dihydro-4H-pyrazolo[5,1-c][1,4]oxazin-3-yl)-3-(3-((6-fluoronaphthalen-1-yl)oxy)propyl)-1H-indole-2-carboxylic acid] | < 100 | > 10000 |
